Data from ChEMBL document CHEMBL3137667, “[Drug-induced liver injury; fourteenth updated edition of the bibliographic database of liver injuries and related drugs]” (Gastroenterol Clin Biol, 2004).

Key:
[1] = Comments (NB not yet translated). [column 'COMMENTAIRES' in source]; conditions: human
[2] = human
[3] = human; remark: listed apart in the source
[4] = Highest frequency of acute liver toxicity observed during clinical trials, expressed as a percentage. [column '% AIGUE' in source]; conditions: human
[5] = human; remark: listed apart in the source
[6] = human, serum, 4383 h
[7] = Highest frequency of moderate liver toxicity observed during clinical trials, expressed as a percentage. [column '% BIOL' in source]; conditions: human
[8] = human; remark: listed apart in the source
[9] = human, serum
[10] = human; remark: listed apart in the source
[11] = Times to onset, minimal and maximal, observed in the indexed observations. [column 'DELAI' in source]; conditions: human
[12] = human, serum; remark: listed apart in the source
[13] = human; remark: listed apart in the source
[14] = human; remark: listed apart in the source
[15] = human; remark: listed apart in the source
[16] = human; remark: listed apart in the source
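Wherever Hepatotoxicity (association with vascular disease) is given: count of indexed literature references reporting vascular liver injury in humans, e.g. peliosis hepatitis, hepatic veno-occlusive disease or Budd-Chiari syndrome.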
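Wherever Hepatotoxicity (benign tumour) is given: value is a count of indexed literature references citing a benign tumour confirmed by histopathology.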
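Wherever Hepatotoxicity (choleostasis) is given: human cholestatic liver injury, shown by histopathology or by peak ALT or AST elevation over alkaline phosphatase ratio below 2, value counts indexed literature reports.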
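Wherever Hepatotoxicity (chronic liver disease) is given: chronic liver injury confirmed by histopathology or persistently raised serum aminotransferase activity beyond 6 months, value given as the count of indexed literature references.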
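Wherever Hepatotoxicity (cirrhosis) is given: value is a count of indexed literature references reporting cirrhosis confirmed by histopathology.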
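Wherever Hepatotoxicity (cytolytic) is given: human cytolytic liver injury, shown by histopathology or by a ratio above 5 of peak ALT or AST elevation to alkaline phosphatase elevation, value counts indexed references.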
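Wherever Hepatotoxicity (granulomatous hepatitis) is given: value is a count of indexed literature references reporting granulomatous liver disease confirmed by histopathology.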
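Wherever Hepatotoxicity (malignant tumour) is given: malignant tumour confirmed by histopathology, value gives the count of indexed literature references reporting it.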
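Wherever Hepatotoxicity (severe hepatitis) is given: human clinical data: severe hepatitis, meaning potentially life-threatening liver failure or clinically observed cases, the value counts how many indexed literature references report it.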
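Wherever Hepatotoxicity (steatosis) is given: steatosis confirmed by histopathology, value is the count of indexed references.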

| SMILES | Hepatotoxicity (comment) [1] | Hepatotoxicity (steatosis) [2] | Hepatotoxicity (cirrhosis) [3] | Hepatotoxicity (acute) ([4]; Liver) [%] | Hepatotoxicity (association with vascular disease) [5] | Hepatotoxicity (chronic liver disease) [6] | Hepatotoxicity (moderate) ([7]; Liver) [%] | Hepatotoxicity (benign tumour) [8] | Hepatotoxicity (moderate) [9] | Hepatotoxicity (severe hepatitis) ([10]; Liver) | Hepatotoxicity (time to onset) [11] | Hepatotoxicity (acute) [12] | Hepatotoxicity (malignant tumour) [14] | Hepatotoxicity (acute) [4] [%] | Hepatotoxicity (moderate) [7] [%] | Hepatotoxicity (severe hepatitis) [10] | Hepatotoxicity (cytolytic) [13] | Hepatotoxicity (choleostasis) [15] | Hepatotoxicity (granulomatous hepatitis) [16] | also measured |
| --- | --- | --- | --- | --- | --- | --- | --- | --- | --- | --- | --- | --- | --- | --- | --- | --- | --- | --- | --- | --- |
| CC(=O)[C@@]1(O)CC[C@H]2[C@@H]3C[C@H](C)C4=CC(=O)CC[C@]4(C)[C@H]3CC[C@@]21C | LITHIASE | 0 | 0 | 3.3 | 0 | 0 | 4.9 | 0 | 5 | 1 | 1 month - 1.7 years | 3 | 0 |  |  |  |  |  |  | Hepatotoxicity (cytolytic) ([13]; Liver): 1; Hepatotoxicity (choleostasis) ([15]; Liver): 1; Hepatotoxicity (granulomatous hepatitis) ([16]; Liver): 0 |
| CCO.CN1CCC[C@H]1c1cccnc1 | CHOLANGITE | 0 | 0 | 0 | 0 | 1 | 4 | 0 | 2 | 0 | 8 months - 10 years | 3 | 0 |  |  |  |  |  |  | Hepatotoxicity (cytolytic) ([13]; Liver): 1; Hepatotoxicity (choleostasis) ([15]; Liver): 2; Hepatotoxicity (granulomatous hepatitis) ([16]; Liver): 0 |
| C[C@]12C=CC(=O)C=C1CC[C@@H]1[C@@H]2CC[C@@]2(C)[C@H]1CC[C@]2(C)O (stereo in doubt; form 1) [METHANDROSTENOLONE] | ANGIOSARCOME | 0 | 0 |  | 0 | 0 |  | 1 | 0 |  | 1 year - 2 years | 3 | 2 | 0 | 0 | 0 | 0 | 0 | 0 |  |
| CC(=O)c1ccc2c(c1)N(CCCN(C)C)c1ccccc1S2 [ACEPROMAZINE] | CHOLESTASE_PROLONGEE | 0 | 0 |  | 0 | 0 |  | 0 | 0 |  | 3 months | 1 | 0 | 0 | 0 | 0 | 0 | 1 | 0 |  |
| CC(=O)c1ccc2c(c1)N(CC(C)N(C)C)c1ccccc1S2 (stereo not drawn) [ACEPROMETAZINE] | CHOLESTASE_PROLONGEE | 0 | 0 |  | 0 | 0 |  | 0 | 0 |  | 3 months | 1 | 0 | 0 | 0 | 0 | 0 | 1 | 0 |  |
| NCCCC(O)(P(=O)(O)O)P(=O)(O)O [ALENDRONIC ACID] | AC_ANTI-ML | 0 | 0 | 0 | 0 | 0 | 1.6 | 0 | 2 | 1 | 2 months - 6 months | 3 | 0 |  |  |  |  |  |  | Hepatotoxicity (cytolytic) ([13]; Liver): 3; Hepatotoxicity (choleostasis) ([15]; Liver): 0; Hepatotoxicity (granulomatous hepatitis) ([16]; Liver): 0 |
| O=c1cc(Cc2ccccc2)[nH]c(=S)[nH]1 [BENZYLTHIOURACIL] | RC/CARBIMAZOLE | 0 | 0 |  | 0 | 0 |  | 0 | 1 |  | 1 month - 2 months | 1 | 0 | 0 | 0 | 0 | 0 | 1 | 0 |  |
| CC(C)(Oc1ccc(CCNC(=O)c2ccc(Cl)cc2)cc1)C(=O)O [BEZAFIBRATE] | I/PERHEXILINE | 0 | 0 |  | 0 | 0 |  | 0 | 5 |  | 3 weeks - 3 months | 2 | 0 | 0 | 10 | 1 | 1 | 0 | 0 |  |
| Nc1c(CC(=O)O)cccc1C(=O)c1ccc(Br)cc1 [BROMFENAC] | AC_ANTI-N | 0 | 0 |  | 0 | 0 |  | 0 | 0 |  | 2 weeks - 8 months | 7 | 0 | 0 | 0 | 7 | 7 | 0 | 0 |  |
| CS(=O)(=O)OCCCCOS(C)(=O)=O [BUSULFAN] | HNR(I/THIOGUANINE) MVO | 0 | 1 |  | 42 | 0 |  | 0 | 11 |  | 2 days - 6 years | 6 | 0 | 6.7 | 100 | 4 | 3 | 3 | 0 |  |
| CCN1CCN(C(=O)N[C@@H](C(=O)N[C@@H]2C(=O)N3C(C(=O)O)=C(CSc4nnnn4C)CS[C@H]23)c2ccc(O)cc2)C(=O)C1=O [CEFOPERAZONE] | CHOLANGITE | 0 | 0 | 0 | 0 | 0 | 20 | 0 | 15 | 1 | 23 days | 0 | 0 |  |  |  | 0 | 0 | 0 |  |
| NS(=O)(=O)c1cc2c(cc1Cl)N=CNS2(=O)=O [CHLOROTHIAZIDE] | #CBP | 0 | 1 |  | 0 | 0 |  | 0 | 0 |  | 2 weeks - 2 years | 5 | 0 | 0 | 0 | 1 | 0 | 5 | 0 |  |
| c1ccc(C2(c3ccccc3)CC2C2=NCCN2)cc1 (stereo not drawn) [CIFENLINE] | CHOLANGITE | 0 | 0 |  | 0 | 0 |  | 0 | 2 |  | 47 days - 5.5 months | 2 | 0 | 0 | 4.1 | 0 | 2 | 0 | 0 |  |
